{"source": "patent US20240117005A1", "about": "“NOVEL BICYCLIC PEPTIDES” (THE COUNCIL OF THE QUEENSLAND INSTITUTE OF MEDICAL RESEARCH, priority 2021, published 2024)", "key": {"MDA-MB-231 cells": {"tested_on": "MDA-MB-231 cells", "experiment": "WST-1 cell proliferation assay, MDA-MB-231", "format": "cell-based, human", "details": "for inhibition of proliferation: MDA-MB-231, WST-1, 72 hours", "description": "MDA-MB-231 cells were seeded at 4×10^3 cells/well into a 96-well flat bottom tissue culture plate in a final volume of 100 ul and left to adhere for 24 hours at 37° C. and 5% CO2. Cells were then treated with inhibitors for 72 hours at a final concentration of 200, 100, 50, 25, 12.5 or 6.25 μM. Following inhibition, media was removed and replaced with 100 μL/well of WST-1 cell proliferation reagent (Sigma-Aldrich, Cat# 11644807001) at 1:10 final dilution. Absorbance was recorded at 450 nm at 1, 2, 3, and 4 hour incubation periods using a microplate spectrophotometer (with 30 sec mix time). Data represent a single independent experiment performed in triplicate, results are graphed as mean +/− standard error (SE).\n(§1) (A) CT26, 4T1 or MDA-MB-231 Cells were treated with inhibitors for 72 hours. Following inhibition, media was removed and replaced with WST-1 cell proliferation reagent. Absorbance was recorded at 450 nm after 1 hour. Data represent a single independent experiment performed in triplicate. Results are graphed as mean +/− standard error (SE). B) MDA-MB-231 or CT26 cancer cells were treated with vehicle control, DL-2-Batch 1 (original stock), DL-2-Batch 2 (current stock), DL-2-TBAB or linear PDL1. Cells were permeabilised and were probed with the DUOLINK ligation assay. Cover slips were mounted on glass microscope slides with ProLong nucblue glass Antifade reagent (Life Technologies). PDL1Ac and IMPα1 DUOLINK Digital images were analysed using ImageJ software (ImageJ, NIH, Bethesda, MD, USA) and graphs represent the mean DOT Fluorescent Intensity in the nucleus or the cytoplasm compartments with significant differences calculated as per one-way ANOVA comparison. (C) MDA-MB-231 or CT26 cancer cells were treated with vehicle control, DL-2-Batch 1 (Original stock), DL-2-Batch 2 (current stock), DL-2-TBAB or linear PDL1. Cells were permeabilised and were probed with the DUOLINK ligation assay. Cover slips were mounted on glass microscope slides with ProLong nucblue glass Antifade reagent (Life Technologies). PDL1-unmodified and IMPα1 DUOLINK digital images were analysed using ImageJ software (ImageJ, NIH, Bethesda, MD, USA) and graphs represent the mean DOT fluorescent intensity in the nucleus or the cytoplasm compartments with significant differences calculated as per one-way ANOVA comparison.\n(§2) 4T1, CT26 or MDA-MB-231 cancer cell lines were treated with DL-2 or DL-2-D bicyclic inhibitors for 72 hours. Following inhibition, media was removed and replaced with WST-1 cell proliferation reagent. Absorbance was recorded at 450 nm after 1 hour. Data represent a single independent experiment performed in triplicate; results are graphed as mean +/− standard error (SE).\nCells weretreated with inhibitors for 48 hours. Following inhibition, media was removed and replaced with WST-1 cell proliferation reagent. Absorbance was recorded at 450 nm after 1 hour."}, "4T1 cells": {"tested_on": "4T1 cells", "experiment": "WST-1 cell proliferation assay, 4T1", "format": "cell-based", "details": "4T1, WST-1, 72 hours", "description": "as §1, §2"}, "PDL1-PTM1 and IMPα1": {"target": "T1, PDL1-PTM1 and IMPα1 (Homo sapiens, UniProt P52292)", "T1 construct": "endogenous in cells; host or cells: MDA-MB-231", "experiment": "Importin-α pathway screening assay (PCC co-localisation)", "format": "cell-based", "description": "MDA-MB-231 cells were treated with DL-2 for 4 to 96 hours or control peptide scramble and were permeabilized probed a mouse anti-IMPα1, rabbit anti-PDL1 and visualized with a donkey anti-rabbit secondary antibody conjugated to Alexa Fluor 647 or a donkey anti-mouse secondary antibody conjugated to Alexa Fluor 568. Cover slips were mounted on glass microscope slides with Prolong nucleus glass Antifade reagent (Life Technologies). PDL1 and IMPα1 digital images were analyzed using ImageJ software (ImageJ, NIH, Bethesda, MD, USA) to determine the mean fluorescent intensity (mean FI). Graphs represent the mean FI of IMPα1. Graphs also depict the PCC of PDL1/IMPα1 using ImageJ software with automatic thresholding and manual selection of regions of interest (ROIs) specific for cell nuclei to calculate the Pearson's co-efficient correlation (PCC) for each pair of antibodies. PCC values range from: −1=inverse of co-localization."}, "PDL2": {"tested_on": "PDL2", "experiment": "Immunofluorescence microscopy of nuclear PDL2", "format": "cell-based, human", "details": "MDA-MB-231 breast cancer cell line", "description": "The cells were fixed and immunofluorescence microscopy was performed. Digital images were analysed using ImageJ software (ImageJ, NIH, Bethesda, MD, USA) to determine the mean nuclear fluorescent intensity (TNFI) in cells measured using ImageJ to select the nucleus minus background (n=>500 cells/sample)."}, "[1]": {"tested_on": "PKCθ, LSD1, p65, C-Rel, SET, pSTAT3", "experiment": "Determination of nuclear-associated proteins", "format": "cell-based, human", "details": "MDA-MB-231, 10 μM", "description": "MDA-MB-231 cells were treated with DL-2 with concentration of 10 μM. MDA-MB-231 cells were treated with DL-2 or control and were permeabilised before being probed with the antibodies specific for PKCθ, LSD1, p65, C-Rel, SET, pSTAT3. Cover slips were mounted on glass microscope slides with ProLong nucblue glass Antifade reagent (Life Technologies). Digital images were analysed using ImageJ software (ImageJ, NIH, Bethesda, MD, USA) and graphs represent the mean fluorescence intensity in the nucleus or the cytoplasm compartments with significant differences calculated as per Mann-Whitney pairwise comparison."}, "[2]": {"tested_on": "metastatic initiating cells (MICs) from stage IV metastatic cancer patients", "experiment": "Pre-clinical treatment of MICs from patient liquid biopsies", "format": "cell-based, human", "details": "cancer cells from NSCLC, TNBC and melanoma patients", "excerpt": "Mesenchymal MICs were isolated from TNBC, lung cancer and melanoma patient liquid biopsies (scored for RECIST v1.1 for immunotherapy/therapeutic resistance or responsiveness (Complete Response, Partial Response or Progressive Disease) and pre-clinically screened with either vehicle control or the nuclear PDL1 inhibitor, DL-2. Samples were fixed and immunofluorescence microscopy performed on these cells with primary antibodies targeting CSV, PDL1-PTM1 (acetylated nuclear PDL1), ALDH1A1 and ABCB5. Graph represents the CFI values for CSV, NFI for PDL1- PTM1, ALDH1A1 and FI for ABCB5 measured using the ASI Digital pathology automated system to select the nucleus minus background (n≥40 cells/sample/5 patients a group)."}}, "note": "“Also recorded” adds a separate entry of the source."}
{"molecule": "CCCCCCCCCCCCCC(=O)NC(C)C(=O)NC1CSCc2cc3cc(c2)CSC[C@H](NC(=O)[C@H](Cc2ccccc2)NC(=O)[C@H](C(C)CC)NC(=O)[C@H](Cc2ccccc2)NC(=O)[C@H]([C@@H](C)O)NC(=O)C(CC(C)C)NC1=O)C(=O)N[C@@H](CCCNC(C)=N)C(=O)N[C@@H](CC(C)C)C(=O)N[C@@H](CCCNC(=N)N)C(=O)N[C@@H](CCCCN)C(=O)NCC(=O)N[C@@H](CCCNC(=N)N)C(=O)NC(C(=O)N[C@@H](CCSC)C(=O)NC(CCSC)C(=O)N[C@@H](CC(=O)O)C(=O)NC(C(=O)N[C@@H](CCCCN)C(=O)NC(CCCCN)C(=O)O)C(C)C)CSC3", "note": "(mixture of isomers) [DL-2]", "values": [{"measurement": "inhibition of proliferation", "setting": "MDA-MB-231 cells", "value": "able to inhibit proliferation; also recorded: significantly inhibit the proliferation"}, {"measurement": "inhibition of proliferation", "setting": "MDA-MB-231 cells; listed as DL-2-TBMB", "value": "able to effectively inhibit the proliferation"}, {"measurement": "potency of proliferation inhibition relative to DL-1", "setting": "MDA-MB-231 cells; MDA-MB-231, higher potency than DL-1", "value": "2-3 fold"}, {"measurement": "inhibition of proliferation", "setting": "4T1 cells", "value": "significantly inhibit the proliferation"}, {"measurement": "inhibition of proliferation", "setting": "4T1 cells; listed as DL-2-TBMB", "value": "able to effectively inhibit the proliferation"}, {"measurement": "nuclear expression of IMPα1", "setting": "PDL1-PTM1 and IMPα1; MDA-MB-231", "value": "No significant effect"}, {"measurement": "PCC or degree of co-localization of PDL1-PTM1 and IMPα1", "setting": "PDL1-PTM1 and IMPα1; MDA-MB-231, up to 96 hours", "value": "significantly impair"}, {"measurement": "nuclear expression of PDL2", "setting": "PDL2", "value": "no effect at all"}, {"measurement": "off-target effects on nuclear proteins (PKCθ, LSD1, p65, C-Rel, SET, pSTAT3)", "setting": "[1]", "value": "No off-target effects were observed"}, {"measurement": "expression of ABCB5, ALDH1A1 and PDL1-PTM1 in MICs", "setting": "[2]", "value": "inhibited expression"}]}
